From ChEMBL document CHEMBL1681663, “Design and synthesis of novel tetrahydronaphthyl azoles and related cyclohexyl azoles as antileishmanial agents” (Bioorg Med Chem Lett, 2011) come the findings set out here.

In brackets after ≈: the same amount, converted by molar mass. Activity calls are given as the source filed them. The calls are words filed in the database; no cut-off is given here.

What is called inhibition is the drop in the measured response relative to a control, in per cent. A word on the IC50: it is the point on the concentration scale where inhibition reaches its midpoint. A word on the CC50: it is the concentration that lowers cell viability or growth by half. Read a high CC50 as better tolerance by the cells. In general, inhibition in vivo refers to the share of the control response that was lost under treatment.

Series [1] has as its system Leishmania donovani. The series is described as follows: Antileishmanial activity against promastigotes of Leishmania donovani at 10 ug/ml. It is filed as functional.
Series [2] concerns Leishmania donovani. The series can be described thus: Antileishmanial activity against amastigotes of Leishmania donovani. It is filed as functional, organism-based.
A short description of series [3]: Cytotoxicity against mouse J774A1 cells by MTT assay. The format is cell-based, J774.A1. A general note: Tetrazolium dyes change colour on reduction, which living cells bring about.
Series [4] in a line: (§1) Selectivity index, ratio of CC50 for mouse J774A1 cells to IC50 for amastigotes of Leishmania donovani. It is filed as functional, J774.A1.
The test system of series [5] is Leishmania donovani. The series is described as follows: Antileishmanial activity against amastigotes of Leishmania donovani at 10 ug/ml. It is filed as functional, organism-based.
Series [6] has as its system Leishmania donovani. The series is described as follows: Antileishmanial activity against Leishmania donovani infected in Hamster assessed as inhibition of parasites growth at 50 mg/kg, ip for 5 times. The format is functional. As to conditions: for inhibition in vivo at 50 mg/kg: route intraperitoneal.
For series [7], the system named is J774.A1. The description is as §1. It is filed as functional.

Take `O=[N+]([O-])c1ccc(O[C@H]2CCCC[C@@H]2n2ccnc2)c(F)c1` (racemic): in series [1], the inhibition at 10 µg/mL was determined as 95.7%. This compound registered an IC50 in series [2] of 2.15 µg/mL (≈ 7.04 µM). Besides, in series [3], it took 14.2 µg/mL (≈ 46.7 µM) to reach half-maximal cytotoxicity (CC50). Further, in series [4], the “Ratio CC50/IC50” value was found to be 6.62.
For the compound `O[C@H]1CCc2ccccc2[C@@H]1n1ccnc1` (racemic), the inhibition at 10 µg/mL in series [1] worked out at 60%. The IC50 in series [2] was > 50 µg/mL. The CC50 in series [3] is > 100 µg/mL. For the same compound, in series [4], the “Ratio CC50/IC50” value stood at 2.
On to `O[C@H]1CCc2ccccc2[C@@H]1n1ccnn1` (racemic), for which, in series [1], the inhibition at 10 µg/mL stood at 90.4%. The half-maximal cytotoxic concentration (CC50) in series [3] was 35.6 µg/mL (≈ 165 µM). Further, the inhibition result in series [5] is “inactive”.
For `FC(F)(F)c1ccc(O[C@H]2CCc3ccccc3[C@@H]2n2ccnc2)cc1` (racemic), the inhibition at 10 µg/mL in series [1] was determined as 60%. In series [3], half-maximal cytotoxicity (CC50) was put at 52.5 µg/mL (≈ 146 µM). Moreover, in series [5], the inhibition result is “inactive”.
With `O=[N+]([O-])c1ccc(O[C@H]2CCc3ccccc3[C@@H]2n2ccnc2)cc1` (racemic), the inhibition at 10 µg/mL in series [1] came out at 94.9%. Also, half-maximal inhibition in series [2] (IC50) required 4.53 µg/mL (≈ 13.5 µM). Moreover, in series [3], the CC50 is 21.4 µg/mL (≈ 63.9 µM). The “Ratio CC50/IC50” value in series [4] came to 4.73.
Take `O=[N+]([O-])c1ccc(O[C@H]2CCc3ccccc3[C@@H]2n2ccnc2)c(C(F)(F)F)c1` (racemic): in series [1], the inhibition at 10 µg/mL was determined as 91.2%. The same compound returned an IC50 in series [2] of 1.59 µg/mL (≈ 3.94 µM). The compound further displayed a CC50 in series [3] of 10.7 µg/mL (≈ 26.5 µM). Moreover, in series [4], the “Ratio CC50/IC50” value was found to be 6.73.
The corresponding values for `O=[N+]([O-])c1ccc(O[C@H]2CCc3ccccc3[C@@H]2n2ccnc2)c(F)c1` (racemic) are 100%, 6.52 µg/mL (≈ 18.5 µM), 32.1 µg/mL (≈ 90.9 µM) and 4.92.
On the same counts, the results for `O=[N+]([O-])c1cc(C(F)(F)F)ccc1O[C@H]1CCc2ccccc2[C@@H]1n1ccnc1` (racemic) are 99.6%, 3.58 µg/mL (≈ 8.88 µM), 20.1 µg/mL (≈ 49.8 µM) and 5.61.
Regarding `Clc1ccc(Cl)c(CO[C@H]2CCc3ccccc3[C@@H]2n2ccnc2)c1` (racemic), the inhibition at 10 µg/mL in series [1] came out at 100%. Moreover, in series [2], the IC50 amounted to 0.64 µg/mL (≈ 1.71 µM). In series [3], this compound registered a CC50 of 22.3 µg/mL (≈ 59.6 µM). Moreover, the “Ratio CC50/IC50” value in series [4] stood at 34.78. Moreover, the inhibition in vivo at 50 mg/kg in series [6] was 83.3%.
For the compound `Clc1cccc(CO[C@H]2CCc3ccccc3[C@@H]2n2ccnc2)c1` (racemic), the inhibition at 10 µg/mL in series [1] turned out to be 100%. Besides, in series [2], the IC50 turned out to be 1.34 µg/mL (≈ 3.95 µM). Besides, in series [3], the CC50 turned out to be 15.5 µg/mL (≈ 45.6 µM). For the same compound, the “Ratio CC50/IC50” value in series [4] stood at 11.53. In series [6], the inhibition in vivo at 50 mg/kg came to 32.1%.
For the compound `O=[N+]([O-])c1ccc(O[C@H]2CCc3ccccc3[C@@H]2n2ccnn2)cc1` (racemic), in series [1], the inhibition at 10 µg/mL was 99.6%. The CC50 in series [3] is > 100 µg/mL. For the same compound, in series [5], the inhibition entry was “inactive”.
The corresponding values for `O=[N+]([O-])c1ccc(O[C@H]2CCc3ccccc3[C@@H]2n2ccnn2)c(F)c1` (racemic) are 100%, > 100 µg/mL and “inactive”.
Regarding `Clc1cccc(CO[C@H]2CCc3ccccc3[C@@H]2n2ccnn2)c1` (racemic), in series [1], the inhibition at 10 µg/mL was found to be 100%. In series [2], this compound yielded an IC50 of 3.01 µg/mL (≈ 8.86 µM). The midpoint of cytotoxicity in series [3], the CC50, lay at 30.2 µg/mL (≈ 88.9 µM). Also, the “Ratio CC50/IC50” value in series [4] came out at 10.03.
As for `FC(F)(F)c1ccc(O[C@H]2CCCC[C@@H]2n2ccnc2)cc1` (racemic), the inhibition at 10 µg/mL in series [1] was determined as 99.8%. Besides, the inhibition result in series [5] is “inactive”.
`O=[N+]([O-])c1ccc(O[C@H]2CCCC[C@@H]2n2ccnc2)cc1` (racemic): the inhibition at 10 µg/mL in series [1] worked out at 98.6%. The IC50 in series [2] turned out to be 2.23 µg/mL (≈ 7.76 µM). The midpoint of cytotoxicity in series [3], the CC50, lay at 8.27 µg/mL (≈ 28.8 µM). For the same compound, the “Ratio CC50/IC50” value in series [4] was found to be 3.7.
`O=[N+]([O-])c1cc(C(F)(F)F)ccc1O[C@H]1CCCC[C@@H]1n1ccnc1` (racemic): in series [1], the inhibition at 10 µg/mL came out at 99%. Also, 5.07 µg/mL (≈ 14.3 µM) corresponded to half-maximal inhibition in series [2] (IC50). Also, the CC50 in series [3] came out at 22.1 µg/mL (≈ 62.3 µM). Also, the “Ratio CC50/IC50” value in series [4] worked out at 4.36.
On the same counts, the results for `Clc1cccc(CO[C@H]2CCCC[C@@H]2n2ccnc2)c1` (racemic) are 96.9%, 1.4 µg/mL (≈ 4.83 µM), 12.8 µg/mL (≈ 43.9 µM) and 9.1.
For `Clc1ccc(Cl)c(CO[C@H]2CCCC[C@@H]2n2ccnc2)c1` (racemic), the inhibition at 10 µg/mL in series [1] was 89.6%. The compound further showed an IC50 in series [2] of 4.03 µg/mL (≈ 12.4 µM). The CC50 in series [3] amounted to 27.2 µg/mL (≈ 83.5 µM). Moreover, the “Ratio CC50/IC50” value in series [4] is 6.73.
For `Clc1ccc(CO[C@H]2CCCC[C@@H]2n2ccnc2)c(Cl)c1` (racemic), the inhibition at 10 µg/mL in series [1] worked out at 99.5%. This compound also yielded an IC50 in series [2] of 2.44 µg/mL (≈ 7.5 µM). In series [3], this compound had a CC50 of 3.43 µg/mL (≈ 10.5 µM). Further, the “Ratio CC50/IC50” value in series [4] was 1.41.
Consider `NC[C@@H]1O[C@H](O[C@H]2[C@@H](O)[C@H](O[C@@H]3[C@@H](O)[C@H](N)C[C@H](N)[C@H]3O[C@H]3O[C@H](CO)[C@@H](O)[C@H](O)[C@H]3N)O[C@@H]2CO)[C@H](N)[C@@H](O)[C@@H]1O` [PAROMOMYCIN], for which the inhibition at 10 µg/mL in series [1] was 124%. Moreover, the IC50 in series [2] was determined as 24.8 µg/mL (≈ 40.3 µM). This compound showed a CC50 in series [3] of 53.3 µg/mL (≈ 86.6 µM). In series [4], the “Ratio CC50/IC50” value is recorded as 2.15. Moreover, the inhibition in vivo at 50 mg/kg in series [6] is 46.7%.
For the compound sodium stibogluconate, the Ratio CC50/IC50 in series [7] worked out at 6.38. In series [6], the inhibition was 92.2%.
